Experimental data as given in patent publication US12102660B2, “Association of N-acetylcysteine and colistin for use in bacterial infections” (Zambon S.P.A., priority 2017, dated 2024).
Where two headings read alike, the source gives them in different places.

How the values were obtained:
[1] = tested on: S. maltophilia clinical isolates; assay: MIC determination and classic checkerboard assays (colistin, NAC); type: cell-based, Stenotrophomonas maltophilia; conditions: for MIC: Stenotrophomonas maltophilia
Description: (§1) In vitro antimicrobial synergism between NAC and colistin was determined following EUCAST guidelines. In particular, the total fractional inhibitory concentration (ΣFIC) was calculated as follows: ΣFIC equals FIC of agent A plus FIC of agent B, where the FIC of agent A or B is the minimum inhibitory concentration (MIC) of agent A or B in the presence of the other divided by the MIC of agent A or B alone. Synergism was defined as a ΣFIC value of <0.5.
Twenty S. maltophilia clinical isolates were tested, including also four isolates from patients affected by cystic fibrosis (CF). […] Synergism between colistin (range 0.25-256 μg/ml) and NAC (range 0.5-32 mg/ml) was investigated by classic checkerboard assays. Fraction inhibitory concentration indices (FICIs) were calculated, and synergism was defined as FICI values <0.5. Time-kill assays were performed with two clinical isolates (including one strain resistant to trimethoprim-sulphamethoxazole, and one from CF). For this purpose, two different concentrations of colistin (2 and 8 μg/ml, representing concentrations achievable in serum and epithelial lining fluid—ELF, respectively) and NAC (1.6 and 8 mg/ml, likely achievable in ELF by topical administration) were tested alone and in combination.

[2] = tested on: colistin resistant A. baumannii clinical isolates; assay: as above; type: cell-based, Acinetobacter baumannii; conditions: for MIC: Acinetobacter baumannii
Description: as §1
Classic checkerboard assays were used to investigate potential synergism between colistin (range 0.25-256 μg/ml) and NAC (range 0.5-32 mg/ml). Fraction inhibitory concentration indices (FICIs) were calculated, and synergism was defined as FICI values <0.5. Synergy between colistin and NAC was also confirmed by time-kill assays performed with one isolate, using two different concentrations of colistin (2 and 8 μg/ml, representing concentrations achievable in serum and epithelial lining fluid—ELF, respectively) and NAC (1.6 and 8 mg/ml, likely achievable in ELF by topical administration).

[3] = twenty S. maltophilia clinical isolates
[4] = seven colistin resistant A. baumannii clinical isolates

| Molecule | MIC50 [1, 3] [mg/mL] | MIC90 [1, 3] [mg/mL] | Colistin MIC ([2]; isolate N50) [mg/mL] | MIC50 [2, 4] [mg/mL] | MIC90 [2, 4] [mg/mL] | colistin MIC range [2, 4] [mg/mL] | colistin 8 μg/ml as multiple of MIC ([2]; strain Z165) [×MIC] | colistin 8 μg/ml as multiple of MIC ([2]; strain Z167) [×MIC] | MIC ([1]; nine S. maltophilia isolates) [mg/mL] | MIC ([1]; one S. maltophilia isolate) [mg/mL] | MIC ([1]; the remaining S. maltophilia isolates) [mg/mL] | MIC ([2]; isolate N50, read-out: NAC MIC) [mg/mL] | MIC ([2]; the remaining A. baumannii isolates, read-out: MIC of NAC) [mg/mL] | MIC ([2]; two of seven A. baumannii isolates, read-out: MIC of NAC) [mg/mL] |
| --- | --- | --- | --- | --- | --- | --- | --- | --- | --- | --- | --- | --- | --- | --- |
| colistin sulfate | 0.016 | 0.064 | 0.016 | 0.064 | 0.128 | 0.016 to 0.256 | 0.25 | 0.06 |  |  |  |  |  |  |
| CC(=O)N[C@@H](CS)C(=O)O [NAC, N-acetylcysteine] |  |  |  |  |  |  |  |  | 16 | > 32 | 32 | > 32 | > 32 | 32 |
